In EP4778516A1, “CALCIFICATION ENHANCER FOR OSTEOBLAST MC3T3-E1 CELL” (Watanabe Oyster Laboratory Co., Ltd., priority 2023, dated 2025):

What was measured:
MC3T3-E1 cells [1] = experiment: Cell proliferation assay (cell counting); type: cell-based, mouse; conditions: Bay 11-7082 1, 10, or 50 nM, 3 days; Fig. 7B
Method: To examine progression of cell proliferation, MC3T3-E1 cells (1×10^5/ml medium per well) were cultured using a 24-well plate in a-MEM supplemented with 10% FBS and 1% P/S at 37°C in a water-saturated atmosphere containing 5% CO2 and 95% air. The cells were cultured for 1, 2, 3, 4, or 5 days in the presence of a vehicle (1% ethanol as final concentration) or DHMBA (10 mM). In another experiment, to evaluate the effects of increased concentrations of DHMBA on MC3T3-E1 cells, the cells (1×10^5/ml per well) were cultured using a 24-well plate in DMEM (containing 10% FBS and 1% P/S). The cells were cultured for 3 days in the presence of either a reagent vehicle (1% ethanol as final concentration) or DHMBA (0.1, 1, 10, 100, or 1000 mM).
To evaluate the effects of DHMBA on cell death of osteoblasts MC3T3-E1, the cells (1×10^5/ml medium per well in a 24-well plate) were cultured in a-MEM containing 10% FBS and 1% P/S. After culturing for 3 days until reaching subconfluence, either a reagent vehicle (1% ethanol as final concentration) or DHMBA (0.1, 1, 10, 100, or 1000 mM) was added, and the cells were further cultured for 48 hours. After culture, to count the number of cells attached to each well, a […] containing 0.05% trypsin and EDTA (0.1 ml per well) was added, and then the culture plates were incubated at 37°C for 2 minutes. Subsequently, a-MEM (0.9 ml) containing 10% FBS and 1% P/S was added, and the cells were detached and mixed by pipetting. The cell suspension (0.1 ml) was mixed with 0.1 ml of 0.5% trypan blue staining solution. By this staining, […]. Viable cells were counted under a microscope (Olympus MTV-3) using a hemocytometer (Sigma-Aldrich, St. Louis, MO) and a cell counter (H-102P, Line Seiki Co., Ltd., Tokyo, Japan), and the average of two counts was calculated. Cell numbers were expressed as the number per well.

MC3T3-E1 cells [2] = experiment: Effects of conditioned medium of LPS-stimulated RAW264.7 cells on MC3T3-E1 cells; type: cell-based, mouse; conditions: Bay 11-7082 1 or 10 nM, conditioned medium 0.5 ml per well
Method: A conditioned medium was obtained by culturing RAW264.7 cells.
RAW264.7 cells (1×10^5 cells/ml per well in a 24-well plate) were cultured for 3 days after reaching subconfluence in DMEM containing 10% FBS and 1% P/S in the presence or absence of LPS (concentration in the medium: 100 ng/ml). After the cells were cultured, the medium (conditioned medium) was collected.
To evaluate the effects of the conditioned medium on proliferation of MC3T3-E1 cells, MC3T3-E1 cells were cultured for 3 days in a-MEM containing 10% FBS and 1% P/S. The cells were then cultured for 3 days using either the conditioned medium (1 ml, control) cultured without LPS or the conditioned medium (0.25 or 0.50 ml per well, adjusted to 1 ml with normal medium) cultured with LPS in the presence or absence of DHMBA (1 or 10 mM).
Further, to examine the effects on cell death of MC3T3-E1 cells, the cells (1×10^5 cells/ml per well) were cultured for 3 days in a-MEM containing 10% FBS and 1% P/S. After reaching subconfluence, the medium was replaced. The cells were then further cultured for 48 hours in either the normal medium, the conditioned medium (1 ml) cultured without LPS, or the conditioned medium (0.25 or 0.50 ml per well, adjusted to 1 ml with normal medium) with either a reagent vehicle (1% ethanol as final concentration) or DHMBA (1 or 10 mM). After culture, the cells were detached from each culture well, and cell numbers were counted in the same manner as described above.
Further, the effects of Bay 11-7082, which is an NF-kB signaling inhibitor, on proliferation or cell death of MC3T3-E1 cells were investigated. First, to examine the effects of Bay 11-7082 on proliferation of MC3T3-E1 cells, the cells (1×10^5 cells/1 ml per well in a 24-well plate) were cultured for 3 days until reaching subconfluence in the presence of 10% FBS, 1% P/S, and either a reagent vehicle (1% ethanol as final concentration) or Bay 11-7082 (1, 10, 50, 100, or 1000 nM). Next, MC3T3-E1 cells were cultured for 3 days in the presence of the conditioned medium (0.5 ml per well, adjusted to a total of 1 ml with normal medium) with or without Bay 11-7082 (1 or 10 nM) in the presence or absence of DHMBA (10 mM).
In another experiment, to evaluate the effects of Bay 11-7082 on cell death of MC3T3-E1, the cells (1×10^5 cells/1 ml per well in a 24-well plate) were cultured in a-MEM containing 10% FBS and 1% P/S. After culturing for 3 days until reaching subconfluence, the medium was replaced with a-MEM (1 ml) containing either the normal medium or the conditioned medium prepared by adding the normal medium to 0.5 ml per well of the conditioned medium, adjusted to a total volume of 1 ml. The cells were then further cultured for 48 hours in the presence of Bay 11-7082 (1 or 10 nM), or Bay 11-7082 (10 nM) in combination with DHMBA (10 mM). After culture, the cells were detached from each culture well, and cell numbers were counted as described above.

For Cc1ccc(S(=O)(=O)/C=C/C#N)cc1 [Bay 11-7082, reference compound], the “number of MC3T3-E1 cells” value (MC3T3-E1 cells [1]) was “did not cause a significant reduction”, the “effects of the conditioned medium on enhancement of cell death of MC3T3-E1 cells” value (MC3T3-E1 cells [2]; 48 hours, Fig. 7D) was “suppressed” and the “effects of the conditioned medium on inhibition of proliferation of MC3T3-E1 cells” value (MC3T3-E1 cells [2]; 3 days, Fig. 7C) was “suppressed”.
